# Reference: patent US4855324A, “Furyl, phenylene, and thienyl leukotriene B4 analogues” (G. D. Searle & Co., priority 1988, dated 1989)
# Assays:
# LTB4 receptors = target: T1, LTB4 receptors (Homo sapiens, UniProt Q15722); assay: LTB4 Receptor Binding Assay (inhibition of specific (3H) LTB4 binding to neutrophils); settings: 0.6nM (3H) LTB4, human neutrophils, 0°C, 45 minutes, pH 7.4
# T1 construct: neutrophils were purified from venous blood of normal human donors; endogenous in cells; host or cells: human neutrophils purified from venous blood of normal donors
# Protocol: Neutrophils (4-6×10^6) in 1ml of Hanks' balanced salt solution containing 10mM Hepes Buffer (HBSS), pH 7.4 and 30 μM nordihydroguaiaretic acid were incubated with 0.6nM (^3 H) LTB4 in the presence or absence of test compounds. The incubation was carried out at 0°C. for 45 minutes and terminated by adding 5ml of ice-cold HBSS followed by rapid filtration of incubation mixture under vacuum through GF/C glass fiber filters. The filters were further washed with 10ml HBSS and their radioactivity determined. Specific binding was defined as the difference between total binding and nonspecific binding which was not displaced by 10^- 7M unlabeled LTB4.
# Human Neutrophil = Human Neutrophil Degranulation Assay (LTB4 induced, myeloperoxidase release); type: cell-based; settings: LTB4 5×10^-8 M, cytochalasin B, 37°C, read-out: Inhibition of LTB4 Induced Neutrophil Degranulation IC50
# Description: For use in both the "LTB4 receptor Binding Assay" and the "human Neutrophil Degranulation Assay", neutrophils were purified from venous blood of normal human donors using standard techniques of dextran sedimentaion, centrifugation on Histopaque^2 (density solution) and hypotonic lysis of erythrocytes (Boyum, A., Isolation of Leukocytes From Human Blood: Further Observations. Scand. J. Lab. Clin. Inves. 21 (Suppl. 97): 31, 1968). The purity of isolated neutrophilis was ≥95%.
# LTB4 induced neutrophil degranulation was determined by measuring the release of myeloperoxidase activity into the incubation medium. Neturophils (3 ×10^6) in 1ml HBSS solution were preincubated with cytochalasin B(5μg) at 37°C. for 5 minutes, followed by preincubation with test compounds for 7 minutes. Neutrophils were then incubated for 2 to 20 minutes with either LTB4 (5 ×10^- 8M) or the chemotatic peptide f-met-leu-phe (5 ×10^- 6M) to induce degranulation. Following incubation, samples were centrifuged and myeloperoxidase was extracted from the cell pellets by sonication in phoshpate buffer containing 0.4% Triton X-100. Triton X-100 was also added to the supernatents to a concentration of 0.4%. The supernatants and the pellet extracts were then assayed spectrophotometrically for myeloperoxide activity by determining the rate of decomposition of H2 O2 withh o-dianisidine as hydrogen donor as described by Renlund, D. G., MacFarlane, J. L., Christensen, R. D., Lynch, R. E., and Rothstein, G., A Quantitative And Sensitive Method For Measurement Of Myeloperoxidase, Clinical Research 28:75A, 1980). Myeloperoxidase activity released into the supernatant was expressed as the percent of the average total activity (pellet plus supernatant).
# The inhibition of LTB4 induced neutrophil degranulation was determined for representative compounds of this invention and their corresponding IC50 values were calculated (Table 1). The concentration of a compound which inhibited LTB4 induced neutrophil degranulation by 50% was determined to be its IC50 value.
# [1] = Boyden Chamber Inhibition (as Antagonist); type: cell-based; settings: at 10^-5 (concentration unit not given)
# T1 sequence (Q15722 whole entry): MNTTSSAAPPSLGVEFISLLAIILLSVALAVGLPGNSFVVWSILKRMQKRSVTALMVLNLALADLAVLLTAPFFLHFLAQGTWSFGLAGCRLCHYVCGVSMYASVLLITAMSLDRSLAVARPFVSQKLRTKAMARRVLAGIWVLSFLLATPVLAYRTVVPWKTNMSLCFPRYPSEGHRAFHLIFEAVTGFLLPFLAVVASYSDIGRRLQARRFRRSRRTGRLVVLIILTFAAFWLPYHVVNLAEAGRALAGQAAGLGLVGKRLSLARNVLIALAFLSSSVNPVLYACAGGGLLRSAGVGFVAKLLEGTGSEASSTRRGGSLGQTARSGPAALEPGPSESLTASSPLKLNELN
IC50 (LTB4 receptors) [µM],IC50 (Human Neutrophil) [µM],SMILES,Boyden Chamber Inhibition at 10^-5 (as Antagonist) [1] [%]
4.1,1.8,CCCCCCCCC(O)/C=C/C=C/c1ccc(C(=O)CCCC(=O)O)s1 (stereo not drawn),30
6.3,5.2,CCCCCCCCC(O)/C=C/C=C/c1ccc(C(O)CCCC(=O)O)s1 (stereo not drawn),33
3,1,CCCCCCCCC(O)/C=C/C=C/c1ccccc1C(=O)CCCC(=O)O (stereo not drawn),8
